Target: human PAD4 (Homo sapiens (Human), UniProt Q9UM07)
Assay: In Vitro PAD4 BAEE Biochemical Assay
Conditions: geometric mean of multiple experiments
How it was run: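 Deimination of BAEE substrate (3 mM) measured as ammonia via o-phthalaldehyde–DTT isoindole fluorescence, 405/535 nm. Tag-free bacterially expressed human PAD4 at 5 nM with 2 mM calcium chloride, pH 7.6 MOPS buffer, 30 min compound preincubation then 2 h reaction, both at 25 °C.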

[1] = human PAD4, BAEE substrate, 5 nM PAD4, 2 mM calcium chloride, 3 mM BAEE
[2] = recombinant PAD4 5 nM, 2 mM calcium chloride, 3 mM BAEE substrate

Chain of human PAD4 (Q9UM07 2-663): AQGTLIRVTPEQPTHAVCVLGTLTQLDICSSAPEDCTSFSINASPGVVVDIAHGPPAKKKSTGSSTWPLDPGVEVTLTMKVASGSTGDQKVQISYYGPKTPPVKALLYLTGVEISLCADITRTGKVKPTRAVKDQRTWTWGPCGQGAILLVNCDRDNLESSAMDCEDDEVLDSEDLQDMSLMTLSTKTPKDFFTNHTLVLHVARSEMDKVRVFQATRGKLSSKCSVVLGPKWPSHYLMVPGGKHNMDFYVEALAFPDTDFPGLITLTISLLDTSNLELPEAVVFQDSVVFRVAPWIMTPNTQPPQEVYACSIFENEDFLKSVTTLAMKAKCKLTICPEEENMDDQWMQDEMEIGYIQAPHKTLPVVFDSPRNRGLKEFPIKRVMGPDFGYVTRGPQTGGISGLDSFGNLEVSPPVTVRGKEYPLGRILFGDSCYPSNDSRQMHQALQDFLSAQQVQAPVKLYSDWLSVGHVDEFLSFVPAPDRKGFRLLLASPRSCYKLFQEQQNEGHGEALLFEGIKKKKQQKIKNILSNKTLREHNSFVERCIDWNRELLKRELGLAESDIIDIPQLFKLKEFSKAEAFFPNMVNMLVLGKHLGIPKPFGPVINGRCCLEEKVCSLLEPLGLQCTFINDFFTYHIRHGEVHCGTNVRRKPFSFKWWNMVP

Row | Structure (SMILES) | IC50 [1] [nM] | IC50 [2] [nM]
1 | COc1cc(C(=O)N2[C@H]3CC[C@@H]2[C@H](N)C3)cc2nc(-c3cc4ccc([C@@H](C)NC(=O)c5ccc(F)cc5)nc4n3CC3CC3)n(C)c12 [Example 208, N-((R)-1-(2-(5-((1R,2R,4S)-2-amino-7-azabicyclo[2.2.1]heptane-7-carbonyl)-7-methoxy-1-methyl-1H-benzo[d]imidazol-2-yl)-1-(cyclopropylmethyl)-1H-pyrrolo[2,3-b]pyridin-6-yl)ethyl)-4-fluorobenzamide] | 138 | 
2 | COc1cc(C(=O)N2C[C@H](N)CCN2C)cc2nc(-c3cc4ccc([C@@H](C)NC(=O)c5cc(C)nc(C)c5)nc4n3CC3CC3)n(C)c12 [Example 179, N-((R)-1-(2-(5-((R)-5-amino-2-methylhexahydropyridazine-1-carbonyl)-7-methoxy-1-methyl-1H-benzo[d]imidazol-2-yl)-1-(cyclopropylmethyl)-1H-pyrrolo[2,3-b]pyridin-6-yl)ethyl)-2,6-dimethylisonicotinamide] | 77.5 | 
3 | COc1cc(C(=O)N2[C@@H]3CC[C@@H](N)[C@H]2CC3)cc2nc(-c3cc4ccc(N(C(C)C)S(C)(=O)=O)nc4n3CC3CC3)n(C)c12 [Example 85, N-(2-(5-((1R,2R,5R)-2-amino-8-azabicyclo[3.2.1]octane-8-carbonyl)-7-methoxy-1-methyl-1H-benzo[d]imidazol-2-yl)-1-(cyclopropylmethyl)-1H-pyrrolo [2,3-b]pyridin-6-yl)-N-isopropyl-methanesulfonamide] | 69.8 | 
4 | COc1cc(C(=O)N2CCC3(CCC3N)C2)cc2nc(-c3cc4ccc(N(C(F)F)S(C)(=O)=O)nc4n3CC3CC3)n(C)c12 (stereo not drawn) [Example 66, N-(2-(5-(1-amino-6-azaspiro[3.4]octane-6-carbonyl)-7-methoxy-1-methyl-1H-benzo[d]imidazol-2-yl)-1-(cyclopropylmethyl)-1H-pyrrolo[2,3-b]pyridin-6-yl)-N-(difluoromethyl) methanesulfonamide] | 21700 | 
5 | COc1cc(C(=O)N2[C@H]3CC[C@@H]2[C@H](N)C3)cc2nc(-c3cc4ccc([C@H]5CCCN5C(=O)N5CCCC5)nc4n3CC3CC3)n(C)c12 [Example 248, ((R)-2-(2-(5-((1R,2R,4S)-2-amino-7-azabicyclo[2.2.1]heptane-7-carbonyl)-7-methoxy-1-methyl-1H-benzo[d]imidazol-2-yl)-1-(cyclopropylmethyl)-1H-pyrrolo[2,3-b]pyridin-6-yl)pyrrolidin-1-yl)(pyrrolidin-1-yl)methanone] | 40.5 | 
6 | COc1cc(C(=O)N2[C@H]3CC[C@@H]2[C@H](N)C3)cc2nc(-c3cc4ccc([C@@H](C)NC(=O)C56CC(F)(C5)C6)nc4n3CC3CC3)n(C3CC3)c12 [Example 130, N-((R)-1-(2-(5-((1R,2R,4S)-2-amino-7-azabicyclo[2.2.1]heptane-7-carbonyl)-1-cyclopropyl-7-methoxy-1H-benzo[d]imidazol-2-yl)-1-(cyclopropylmethyl)-1H-pyrrolo[2,3-b]pyridin-6-yl)ethyl)-3-fluorobicyclo[1.1.1]pentane-1-carboxamide] | 45.1 | 
7 | COc1cc(C(=O)N2C[C@H](N)[C@@H]3CC[C@H]2C3)cc2nc(-c3cc4ccc([C@@H](C)NC(=O)c5ccc(C#CC(C)(C)S(C)(=O)=O)nc5)nc4n3CC3CC3)n(C)c12 [Example 308, N-((R)-1-(2-(5-((1S,4R,5R)-4-amino-2-azabicyclo[3.2.1]octane-2-carbonyl)-7-methoxy-1-methyl-1H-benzo[d]imidazol-2-yl)-1-(cyclopropylmethyl)-1H-pyrrolo[2,3-b]pyridin-6-yl)ethyl)-6-(3-methyl-3-(methylsulfonyl)but-1-yn-1-yl)nicotinamide] |  | 66.2
8 | COc1cc(C(=O)N2CC3(CCNC3)C2)cc2nc(-c3cc4ccc(N(C(F)F)S(C)(=O)=O)nc4n3CC3CC3)n(C)c12 [Example 67, N-(1-(cyclopropylmethyl)-2-(7-methoxy-1-methyl-5-(2,6-diazaspiro[3.4]octane-2-carbonyl)-1H-benzo[d]imidazol-2-yl)-1H-pyrrolo[2,3-b]pyridin-6-yl)-N-(difluoromethyl) methanesulfonamide] | 5080 | 
9 | COc1cc(C(=O)N2C[C@H](N)CCN2C)cc2nc(-c3cc4ccc([C@@H](C)NC(=O)c5cccnc5C)nc4n3CC3CC3)n(C)c12 [Example 177, N-((R)-1-(2-(5-((R)-5-amino-2-methylhexahydropyridazine-1-carbonyl)-7-methoxy-1-methyl-1H-benzo[d]imidazol-2-yl)-1-(cyclopropylmethyl)-1H-pyrrolo[2,3-b]pyridin-6-yl)ethyl)-2-methylnicotinamide] | 90.8 | 
10 | COc1cc(C(=O)N2CCC[C@@H](N)[C@H]2C)cc2nc(-c3cc4ccc(N(C5CC5)S(C)(=O)=O)nc4n3CC3CC3)n(C)c12 [Example 31, N-(2-(5-((2R,3R)-3-amino-2-methylpiperidine-1-carbonyl)-7-methoxy-1-methyl-1H-benzo[d]imidazol-2-yl)-1-(cyclopropylmethyl)-1H-pyrrolo [2,3-b]pyridin-6-yl)-N-cyclopropylmethanesulfonamide] | 110 | 
11 | COc1cc(C(=O)N[C@@H]2CNC[C@H]2NC(=O)CCCN(C)C)cc2nc(-c3cc4ccc(N(C(F)F)S(C)(=O)=O)nc4n3CC3CC3)n(C)c12 [Example 83, 2-(1-(cyclopropylmethyl)-6-((N-(difluoromethyl)methyl)sulfonamido)-1H-pyrrolo[2,3-b]pyridin-2-yl)-N-((3R,4R)-4-(4-(dimethylamino)butanamido)pyrrolidin-3-yl)-7-methoxy-1-methyl-1H-benzo[d]imidazole-5-carboxamide] | 50000 | 
12 | COc1cc(C(=O)N2[C@H]3CC[C@@H]2[C@H](N)C3)cc2nc(-c3cc4ccc([C@@H](C)NC(=O)c5c(F)cccc5F)cc4n3CC3CC3)n(C3CC3)c12 [Example 148, N-((R)-1-(2-(5-((1R,2R,4S)-2-amino-7-azabicyclo[2.2.1]heptane-7-carbonyl)-1-cyclopropyl-7-methoxy-1H-benzo[d]imidazol-2-yl)-1-(cyclopropylmethyl)-1H-indol-6-yl)ethyl)-2,6-difluorobenzamide] | 123 | 
13 | COc1cc(C(=O)N2C[C@H](N)CC[C@@H]2C)cc2nc(-c3cc4ccc(C(=O)N(C)c5ccccc5)nc4n3CC3CC3)n(C)c12 [Example 252, 2-(5-((2S,5R)-5-amino-2-methylpiperidine-1-carbonyl)-7-methoxy-1-methyl-1H-benzo[d]imidazol-2-yl)-1-(cyclopropylmethyl)-N-methyl-N-phenyl-1H-pyrrolo[2,3-b]pyridine-6-carboxamide] | 1820 | 
14 | COc1cc(C(=O)N2[C@H]3CC[C@@H]2[C@H](N)C3)cc2nc(-c3cc4ccc([C@@H](C)NC(=O)C5(OC)CCC5)cc4n3CC3CC3)n(C)c12 [Example 141, N-((R)-1-(2-(5-((1R,2R,4S)-2-amino-7-azabicyclo[2.2.1]heptane-7-carbonyl)-7-methoxy-1-methyl-1H-benzo[d]imidazol-2-yl)-1-(cyclopropylmethyl)-1H-indol-6-yl)ethyl)-1-methoxycyclobutane-1-carboxamide] | 63.3 | 
15 | COc1cc(C(=O)N2C[C@H](N)[C@@H]3CC[C@H]2C3)cc2nc(-c3cc4ccc([C@@H](C)NC(=O)c5ccnc(C(F)F)c5)nc4n3CC3CC3)n(C)c12 [Example 296, N-((R)-1-(2-(5-((1S,4R,5R)-4-amino-2-azabicyclo[3.2.1]octane-2-carbonyl)-7-methoxy-1-methyl-1H-benzo[d]imidazol-2-yl)-1-(cyclopropylmethyl)-1H-pyrrolo[2,3-b]pyridin-6-yl)ethyl)-2-(difluoromethyl)isonicotinamide] |  | 74.1

From patent publication US11878965B2, “Inhibitors of peptidylarginine deiminases” (Gilead Sciences, Inc., priority 2020, dated 2024)
